The subject of assay [1] is CRE BAG 2 cells. In words: Marker gene expression by flow cytometry, CRE BAG 2 (Example 62). Type of assay: cell-based. The note with it: 0.2 mM dye, 37° C., 30 minutes. Here is the method: NIH-3T3 and CRE BAG2 cells are maintained as in Example 61. A 10 mM stock solution of (((3 -(2-pentafluorobenzoyl)amino)ethyl)amino)carbonyl)-umbelliferyl β-D-galactopyranoside (Compound 37; Example 37) is prepared in DMF. A 10 mM stock solution of 4-chloromethylcoumarin β-D-galactopyranoside (CMCG; Molecular Probes #D-2921) is prepared in a 1:1 mixture of DMSO and water. NIH-3T3 and CRE BAG2 cells are trypsinized, washed with phosphate buffered saline (PBS), pH 7.2 and resuspended in D-MEM with 10% BCS. To separate 1 mL cell suspensions are added the dye stock solutions to obtain final concentrations of 0.2 mM dye. Incubation is carried out at 37° C. for 30 minutes. Cells are centrifuged to form a pellet, the supernatant is discarded and the cells are washed twice with PBS, pH 7.2 and suspended in the same buffer. Cells are analyzed by flow cytometry using a Becton-Dickinson FACS Vantage flow cytometer. […] However, CRE BAG 2 cells stained with the Compound 37 show fluorescence that is greater than 25-fold that shown by autofluorescent control cells. For the CRE BAG 2 cells stained with CMCG, the fluorescence intensity is only 8-fold greater than that of the autofluorescent control cells.

Assay [2] deals with Bovine pulmonary aorta endothelial cells (BPAEC). Description: Retention of fluorescence in fixed cells (Example 66). The following applies: 3.7% formaldehyde 30 minutes, 0.2% Triton X-100 30 minutes. Type of assay: cell-based.
Assay [3] shares this test system. In words: Glutathione adduct formation and fate of substrate in cultured animal cells, HPLC (Example 66). Type of assay: cell-based. Here is the method:
The solutions are mixed overnight with three volumes of ethyl acetate followed by centrifugation at 15,000×g for 30 min to separate the organic and aqueous layers. HPLC analysis using a Rainin HPLC equipped with a C18, 5 μm, 100 Å, 4.6×250 mm MICROSORB-MV reverse phase column. […] Products are detected by reading the absorbance at 500 nm.
Bovine pulmonary aorta endothelial cells (BPAEC) are removed from flasks by trypsinization and washed into fresh complete growth medium to yield 10^6 cells/mL. […] Other aliquots of the cell suspension are loaded with the same substrates for 1 hour, rinsed into fresh complete medium, then incubated in the absence of substrate for an additional 3 hr at 37° C. to look for retention and efflux of fluorescent products. At the end of each incubation period the cells are removed by centrifugation and the supernate is retained. The cell pellets are resuspended in 1 mL of E-Pure water and subjected to three freeze-thaw cycles (-80° C. to 37° C.).

Assay [4] has as its system CRE BAG 2 cells. Description: Peptidase substrates in live cells, fluorescence microscopy (Example 59). Type of assay: cell-based. The note with it: 1 μM, 0.5 μM or 0.1 μM, 37° C., 30 minutes. Here is the method:
CRE BAG 2 cells obtained from American Type Culture Collection Co., Rockville, Md. are used. They are grown in a humidified atmosphere of 5% CO2 in D-MEM supplemented with 10% calf serum, 50 μg/mL gentamycin, 300 μg/mL L-glutamine and 10 mM HEPES, pH 7.4. 1 mM stock solutions of Compound 13-Leu (Example 13) and Compound 13-Arg substrate are prepared in DMSO. CRE BAG 2 cells are trypsinized, washed with phosphate-buffered saline, pH 7.2 and resuspended in 1 mL of the same buffer. 1 μL, 0.5 μL or 0.1 μL of the stock reagents is added to 1 mL of the cell suspension to obtain a final concentration of 1 μM, 0.5 μM or 0.1 μM. Incubation is carried out at 37° C. for 30 minutes. Cells are centrifuged to form a pellet, the supernatant is discarded and the cells are washed with PBS, pH 7.2 and suspended in the same buffer. Cells are mounted on slides and observed by fluorescence microscopy using filters optimized for fluorescein.

For assay [5], the system named is alkaline phosphatase. In words: Detection of alkaline phosphatase on a membrane blot (Example 63). Type of assay: biochemical. The note with it: nitrocellulose; for amount of enzyme detected, before washing: 35 minutes, 37° C., prior to washing the membranes. Here is the method:
The reagents used are: 1) 5-(pentafluorobenzoylamino)fluorescein diphosphate, tetraammonium salt (Compound 47; Example 47), 10 mM in 0.1M Tris, pH 8.5; 2) fluorescein diphosphate (FDP; Molecular Probes, #F-2999), 10 mM in 0.1M Tris, pH 8.5; 3) BLOCKER Blotto in PBS (Pierce Chemical Company); 4) 0.2M glycine, pH 8.8; 5) 0.05M MgCl2, 6) 0.1M Tris, pH 8.5; 7) wash buffer: 20 mM Tris, 137 mM NaCl, 0.5% TWEEN 20, pH 7.5. Stock solutions of alkaline phosphatase are diluted in 0.1M Tris, pH 8.5 to obtain solutions with the following concentrations: 1 μg/μL, 0.5 μg/μL, 0.25 μg/μL, 0.1 μg/μL, 50 ng/μL, 10 ng/μL, 1 ng/μL and 0 ng/μL. 1 μL of each diluted solution is spotted on a nitrocellulose membrane (1"×1"), pore size 0.45 μM, and allowed to dry overnight at room temperature. Blocking is done by treating both nitrocellulose blots with 2 mL of supernatant liquid from the BLOCKER Blotto solution for 30 minutes at room temperature. The following mixture is prepared: 1.5 mL of 0.2M glycine, pH 8.8+0.4 mL of 0.05M MgCl2 +100 μL of 0.1M Tris, pH 8.5+10 μL of 10 mM substrate stock solution (either PFB-FDP or FDP). Blotto supernatant on the blots is replaced with the above mixture and incubation is carried out for 35 minutes at 37° C. A Polaroid image of the blots is obtained by illuminating with reflected UV light at 254 nm. Exposure time is 5-10 sec with an aperture setting of F=4.5 and filter #15 is used to block unwanted light. Both Compound 47 and FDP can detect ~50 ng of the enzyme prior to washing the membranes. The blots are washed twice for 5 minutes each time with 2 mL of wash buffer and an image is obtained using the same settings and exposure times as described above.

The subject of assay [6] is glutathione transferase (GST). In words: Reactivity with glutathione catalyzed by glutathione transferase, TLC (Example 50). Type of assay: biochemical. Here is the method:
The suitability of Compound 1 (Example 1) and 5-(pentachlorobenzoylamino)fluorescein (Compound 48) as substrates for glutathione transferase (GST) in the presence of excess glutathione (GSH) is tested in vitro as follows: 5 mM GSH, 0.5 mM substrate (Compound 1 or Compound 48) and 20 micrograms GST (Sigma #G-6511, 70 units/mg) are combined in 0.1M phosphate buffer, pH 8.0, for 1 hour at 37° C. The reaction is terminated by spotting approximately 3 μL on silica gel TLC plates. The plate is developed using 1-butanol: methanol: water (3:1:1). […] Analysis of the reaction mixture by HPLC as in Example 52 confirms that the reaction product of Compound 1 with GSH is identical to the authentic Compound 1-GSH adduct as prepared in Example 45 (Compound 45).

Assay [7] concerns NIH-3T3 cells. Description: Hydrolysis of esterase substrates and product retention in live cells, flow cytometry (Example 65). Type of assay: cell-based. Here is the method: NIH-3T3 cells obtained from American Type Culture Collection Co., Rockville, Md. are used. They are grown in a humidified atmosphere of 5% CO2 in D-MEM supplemented with 10% bovine calf serum (BCS), 50 μg/mL gentamycin, 300 μg/mL L-glutamine and 10 mM HEPES, pH 7.4. Stock solutions of Compound 4 (Example 3), 10 mM in DMSO, and Compound 48 (Example 50), 5 mM in DMSO, are prepared. NIH-3T3 cells are trypsinized, washed with phosphate-buffered saline (PBS), pH 7.2 and resuspended in D-MEM with 10% BCS. To 1 mL of the cell suspension is added the dye stock solution to obtain a final dye concentration of 0.1 mM. Incubation is carried out at 37° C. for 30 minutes followed by incubation on ice for 30 minutes. Cells are centrifuged to form a pellet, the supernatant is discarded and the cells are washed twice with PBS, pH 7.2 and suspended in the same buffer. Cells are analyzed by flow cytometry using the Becton-Dickinson FACS Vantage flow cytometer. After analysis on the flow cytometer, cells are placed at 37° C. and analyzed by flow cytometry at frequent intervals over a period of 75 minutes. Cells stained with either of the dyes are at least 20-fold brighter than the autofluorescent control cells. Approximately 45% of Compound 4 and 35% of Compound 48 are still retained by the cells after 75 minutes of incubation at 37° C.

Where [8] appears, read: 15 min, 5 μM substrate, continuous.
The mark [9] stands for this setting: 1 hr, washed, then additional 3 hr at 37° C.
Where [10] appears, read: 4 hrs, 5 μM substrate, continuous.

Structures can show the parent of a compound that is named as a salt.

As to `O=c1cc(CCl)c2ccc(O[C@@H]3O[C@H](CO)[C@H](O)[C@H](O)[C@H]3O)cc2o1` [CMCG, 4-chloromethylcoumarin β-D-galactopyranoside, reference compound], in assay [1], the “fluorescence relative to autofluorescent control cells” value was found to be 8 fold.
In the case of `CC(=O)Oc1ccc2c(c1)Oc1cc(OC(C)=O)ccc1C21OC(=O)c2cc(NC(=O)c3ccccc3)ccc21` [Compound 5, 5-(benzoylamino)fluorescein diacetate], the “fluorescence after fixation and permeabilization” value in assay [2] is on record as “essentially nonfluorescent”. In assay [3] (5 μM substrate, 37° C., HPLC), the “GSH adduct formation in cells” value is “does not”. Also, in assay [3] (setting [8]), the “EXTRACELLULAR Free dye” value was 4829 relative fluorescence units; the “EXTRACELLULAR Free dye, fraction of total fluorescence” value (from here on “EXTRACELLULAR Free dye, fraction”) came to 91.5%; the “INTRACELLULAR Free dye” value was 450 relative fluorescence units; the “INTRACELLULAR Free dye, fraction of total fluorescence” value is on record as 8.5%. Further, in assay [3] (setting [9]), the “EXTRACELLULAR Free dye” value is listed as 469 relative fluorescence units and the “EXTRACELLULAR Free dye, fraction” value was found to be 100%. In assay [3] (setting [10]), the “EXTRACELLULAR Free dye” value is listed as 8627 relative fluorescence units; the “EXTRACELLULAR Free dye, fraction” value is reported as 99.1%; the “INTRACELLULAR Free dye” value was 78 relative fluorescence units; the “INTRACELLULAR Free dye, fraction of total fluorescence” value was 0.9%. The “hydrolysis product detectable in washed cells” value in assay [3] (washed at one hour then incubated additional 3 hours) was “not detectable”.
Take `CC(C)C[C@H](N)C(=O)Nc1ccc2c(c1)Oc1cc(NC(=O)c3c(F)c(F)c(F)c(F)c3F)ccc1C21OC(=O)c2ccccc21` (stereo partly drawn) [Compound 13-Leu, Rhodamine 110, pentafluorobenzoyl amide, L-leucine amide, hydrochloride]: the “staining of cells, fluorescence microscopy” value in assay [4] is given as “punctate green fluorescence associated with organelles”.
Take `O=C1OC2(c3ccc(OP(=O)(O)O)cc3Oc3cc(OP(=O)(O)O)ccc32)c2ccc(NC(=O)c3c(F)c(F)c(F)c(F)c3F)cc21` [Compound 47, 5-(pentafluorobenzoylamino)fluorescein diphosphate, tetraammonium salt]: the “amount of enzyme detected, before washing” value in assay [5] is recorded as ~ 50 ng. For the same molecule, the “amount of enzyme detected, after washing” value in assay [5] (washed twice for 5 minutes, per spot) is recorded as ~ 50 ng.
For `O=C1OC2(c3ccc(O)cc3Oc3cc(O)ccc32)c2ccc(NC(=O)c3c(Cl)c(Cl)c(Cl)c(Cl)c3Cl)cc21` [Compound 48, 5-(pentachlorobenzoylamino)fluorescein], the “adduct formation with glutathione in presence of GST” value in assay [6] (5 mM GSH, 0.5 mM substrate, 20 micrograms GST, pH 8.0, 1 hour, 37° C.) is listed as “does not form a new adduct”. Moreover, the “reaction in control without GST” value in assay [6] (GST omitted) was “very low or no reaction”. Also, the “brightness versus autofluorescent control cells” value in assay [7] (0.1 mM dye, 37° C., 30 minutes then on ice 30 minutes) was “at least 20 fold”. The “dye retained by the cells” value in assay [7] (after 75 minutes of incubation at 37° C.) is roughly 35%.
Consider `O=C1OC2(c3ccc(OP(=O)(O)O)cc3Oc3cc(OP(=O)(O)O)ccc32)c2ccccc21` [FDP, fluorescein diphosphate, reference compound], for which the “amount of enzyme detected, before washing” value in assay [5] is listed as ~ 50 ng. For the same molecule, the “detection of enzyme after washing” value in assay [5] (washed twice for 5 minutes) is “unable to detect the presence of any enzyme”.
